Experimental findings from ChEMBL document CHEMBL1201862, “PubChem BioAssay data set” (2004) are described below.

Among the test systems are HOP-92; SNB-75; HCT-15; HOP-62; Malme-3M; SK-MEL-28; NCI-H460; OVCAR-4; DLD-1; IGROV-1; OVCAR-3; COLO 205; CCRF-CEM; LOX IMVI; TK-10; SK-MEL-5; HCT-116; UO-31; A549; BT-549.
Assay in all cases: NCI anticancer screen, dose series, 48 h

The structures appear in SMILES notation.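 Method: 48-hour compound exposure of cells in 96-well plates, five concentrations, linear interpolation of endpoints. GI50 is the concentration that inhibits growth by half.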 Calls of active or inactive are those of the source. Rule as the data show it: active = GI50 up to about 1.1 µM and inactive = higher. A value given as a limit tells only on which side of the number the result lay.

In the case of `CC12CCC([C@H](N3CCOCC3)/C1=N\OCCN1CCCC1)C2(C)C` (some centres undefined), the GI50 in the test with HOP-92 was > 100 µM (inactive); in the test with SNB-75, > 100 µM (inactive); with HCT-15, > 100 µM; in the test on HOP-62 it was > 100 µM (inactive); in the test on Malme-3M, > 100 µM (inactive); in the test with SK-MEL-28, > 100 µM (inactive). The GI50 in the test with NCI-H460, in the test with OVCAR-4, with DLD-1, in the test with IGROV-1, in the test with OVCAR-3 and in the test on COLO 205 was > 100 µM (inactive) each time. The GI50 in the test with CCRF-CEM, with LOX IMVI, in the test with TK-10, in the test on SK-MEL-5, in the test on HCT-116 and with UO-31 was > 100 µM (inactive) in each case. Besides, the GI50 with A549 is > 100 µM (inactive).
On to `C[C@]12CC(C#N)C(=O)C(O)=C1CC[C@@H]1C2CC[C@@]2(C)C1CC[C@@H]2O` (some centres undefined), for which the GI50 is 10.7 µM (inactive) with HOP-92; 9.91 µM (inactive) in the test with SNB-75; 48.6 µM in the test with HCT-15; 80.4 µM (inactive) in the test with HOP-62; 31.1 µM (inactive) in the test on Malme-3M; 40.9 µM (inactive) with SK-MEL-28. In addition, the GI50 was 41.8 µM (inactive) in the test on NCI-H460; 48.5 µM (inactive) in the test with OVCAR-4; 58.3 µM (inactive) with DLD-1; 12.2 µM (inactive) in the test with IGROV-1; 65.5 µM (inactive) with OVCAR-3; 48.5 µM (inactive) in the test with COLO 205. Moreover, the GI50 in the test on CCRF-CEM is 45.1 µM (inactive); with LOX IMVI it was 27.4 µM (inactive); in the test with TK-10 it was 27.1 µM (inactive); in the test on SK-MEL-5, 26.3 µM (inactive); in the test with HCT-116, 41.1 µM (inactive); with UO-31 it was 10.1 µM (inactive). For the same compound, the GI50 with A549 is 47.5 µM (inactive).
For `NC(=O)N/N=C(/c1nc2ccc([N+](=O)[O-])cc2nc1O)C(O)c1ccco1` (centres undefined), the GI50 with HOP-92 was > 100 µM (inactive); with SNB-75, 97.9 µM (inactive); in the test on HCT-15 it was 12 µM; in the test on HOP-62 it was 35.3 µM (inactive); with Malme-3M, > 100 µM (inactive); in the test with SK-MEL-28, 96.6 µM (inactive). Moreover, the GI50 with NCI-H460 is 59.6 µM (inactive); in the test on OVCAR-4 it was > 100 µM (inactive); in the test with DLD-1, > 100 µM (inactive); in the test with IGROV-1, 73.3 µM (inactive); in the test with OVCAR-3 it was > 100 µM (inactive); with COLO 205, 40 µM (inactive). Moreover, the GI50 in the test with CCRF-CEM is 34.7 µM (inactive); in the test with LOX IMVI, 21.6 µM (inactive); in the test with TK-10 it was > 100 µM (inactive); in the test on SK-MEL-5, 30 µM (inactive); in the test with HCT-116, > 100 µM (inactive); in the test on UO-31, 53.6 µM (inactive). Moreover, the GI50 in the test with A549 is 93.8 µM (inactive).
On to `CC12C=CC(=O)C=C1CCC1C3CCC(O)(C(=O)CO)C3(C)CC(O)C12F` (centres undefined), for which the GI50 in the test on HOP-92 is > 100 µM (inactive); with BT-549, 95.3 µM (inactive); in the test with SNB-75, > 100 µM (inactive); in the test with HCT-15 it was > 100 µM; in the test on HOP-62 it was > 100 µM (inactive); in the test on Malme-3M, > 100 µM (inactive). In addition, the GI50 in the test on SK-MEL-28, in the test on NCI-H460, in the test with OVCAR-4, with DLD-1, in the test with IGROV-1 and in the test on OVCAR-3 was > 100 µM (inactive) throughout. Moreover, the GI50 is > 100 µM (inactive) in the test with COLO 205; 0.536 µM (active) in the test on CCRF-CEM; > 100 µM (inactive) in the test on LOX IMVI; > 100 µM (inactive) with TK-10; > 100 µM (inactive) with SK-MEL-5; > 100 µM (inactive) in the test with HCT-116. Besides, the GI50 with UO-31 and with A549 was > 100 µM (inactive) in each case.
As to `O=c1[nH][nH]c(=O)[nH]1`, the GI50 in the test on HOP-92 is > 100 µM (inactive); in the test with SNB-75, > 100 µM (inactive); in the test with HCT-15, > 100 µM; with HOP-62 it was > 100 µM (inactive); in the test with Malme-3M, > 100 µM (inactive); in the test on SK-MEL-28 it was > 100 µM (inactive). For the same compound, the GI50 in the test with NCI-H460, with OVCAR-4, in the test on DLD-1, with IGROV-1, in the test on OVCAR-3 and in the test with COLO 205 was > 100 µM (inactive) each time. Besides, the GI50 in the test on CCRF-CEM, with LOX IMVI, in the test with TK-10, in the test on SK-MEL-5, with HCT-116 and with UO-31 was > 100 µM (inactive) throughout. Further, the GI50 in the test with A549 was > 100 µM (inactive).
As for `CC(=O)Nc1ccc(C(=O)NN2C(=O)C(Cl)C2c2ccccc2O)cc1` (centres undefined), the GI50 in the test on HOP-92 was 47.6 µM (inactive); in the test on SNB-75 it was 36.8 µM (inactive); with HCT-15, 3.36 µM; in the test with HOP-62, 14.2 µM (inactive); in the test with Malme-3M, 82.2 µM (inactive); in the test with SK-MEL-28 it was > 100 µM (inactive). Moreover, the GI50 with NCI-H460 was 6.81 µM (inactive); with OVCAR-4, > 100 µM (inactive); in the test with DLD-1, > 100 µM (inactive); in the test with IGROV-1, > 100 µM (inactive); with OVCAR-3, 3.26 µM (inactive); in the test with COLO 205, 45.2 µM (inactive). Besides, the GI50 was 4.9 µM (inactive) in the test with CCRF-CEM; 13.2 µM (inactive) with LOX IMVI; 51.4 µM (inactive) with TK-10; > 100 µM (inactive) in the test with SK-MEL-5; > 100 µM (inactive) in the test with HCT-116; 34.4 µM (inactive) in the test on UO-31. Moreover, the GI50 in the test with A549 was > 100 µM (inactive).
With `CC1=Nc2ccccc2S(=O)(=O)N1`, the GI50 with HOP-92 was > 100 µM (inactive); in the test with SNB-75, > 100 µM (inactive); in the test with HCT-15, > 100 µM; in the test with HOP-62, > 100 µM (inactive); with Malme-3M, > 100 µM (inactive); in the test with SK-MEL-28, > 100 µM (inactive). The GI50 with NCI-H460, with OVCAR-4, with DLD-1, in the test on IGROV-1, in the test with OVCAR-3 and in the test with COLO 205 was > 100 µM (inactive) each time. For the same compound, the GI50 in the test with CCRF-CEM, with LOX IMVI, with TK-10, in the test with SK-MEL-5, in the test with HCT-116 and in the test on UO-31 was > 100 µM (inactive) in each case. The GI50 in the test with A549 is > 100 µM (inactive).
